Measured values reported in ChEMBL document CHEMBL3885881, “DrugMatrix”.

Species: Rattus norvegicus
Assay: DrugMatrix - Regimen: Daily Repeat
Assay type: toxicity, organism-based, Sprague-Dawley
Set-up: regimen Daily Repeat, gender Male, age 6-8 weeks
Conditions: in vivo, po, route oral GAVAGE; for ABSOLUTE BASOPHIL / ABSOLUTE EOSINOPHIL / ABSOLUTE LYMPHOCYTE / ABSOLUTE MONOCYTE / ABSOLUTE SEGMENTED NEUTROPHIL / BASOPHIL / EOSINOPHIL / ERYTHROCYTE COUNT / HEMATOCRIT / HEMOGLOBIN / LEUKOCYTE COUNT / LYMPHOCYTE / MEAN CORPUSCULAR HEMOGLOBIN / MEAN CORPUSCULAR HEMOGLOBIN CONCENTRATION / MEAN CORPUSCULAR VOLUME / MONOCYTE / NEUTROPHIL / NUCLEATED RED BLOOD CELLS / PLATELET COUNT: tissue Blood
[1] = 1100 mg/kg, 72 h, dose level High, time 3 day, vehicle .5 % CMC
[2] = 1100 mg/kg, 72 h, tissue Plasma, dose level High, time 3 day, vehicle .5 % CMC
[3] = 1100 mg/kg, 120 h, dose level High, time 5 day, vehicle .5 % CMC
[4] = 1100 mg/kg, 120 h, tissue Plasma, dose level High, time 5 day, vehicle .5 % CMC
[5] = 20 mg/kg, 72 h, dose level Low, time 3 day, vehicle 100 % WATER
[6] = 20 mg/kg, 72 h, tissue Plasma, dose level Low, time 3 day, vehicle 100 % WATER
[7] = 20 mg/kg, 120 h, dose level Low, time 5 day, vehicle 100 % WATER
[8] = 20 mg/kg, 120 h, tissue Plasma, dose level Low, time 5 day, vehicle 100 % WATER

COc1cc(NS(=O)(=O)c2ccc(N)cc2)nc(OC)n1 [SULFADIMETHOXINE]
ABSOLUTE BASOPHIL [1]: 0 CELLS/uL | ABSOLUTE EOSINOPHIL [1]: 176 CELLS/uL | ABSOLUTE LYMPHOCYTE [1]: 8678 CELLS/uL | ABSOLUTE MONOCYTE [1]: 307.33 CELLS/uL | ABSOLUTE SEGMENTED NEUTROPHIL [1]: 1105.33 CELLS/uL | BASOPHIL [1]: 0% | EOSINOPHIL [1]: 1.67% | ERYTHROCYTE COUNT [1]: 5.56 x10E6/uL | HEMATOCRIT [1]: 35.03% | HEMOGLOBIN [1]: 13.43 G/DL | LEUKOCYTE COUNT [1]: 10.27 x10E3/uL | LYMPHOCYTE [1]: 84.67% | MEAN CORPUSCULAR HEMOGLOBIN [1]: 24.13 pg | MEAN CORPUSCULAR HEMOGLOBIN CONCENTRATION [1]: 38.37 G/DL | MEAN CORPUSCULAR VOLUME [1]: 62.93 fL | MONOCYTE [1]: 3% | NEUTROPHIL [1]: 10.67% | NUCLEATED RED BLOOD CELLS [1]: 0 /100WBC | PLATELET COUNT [1]: 1279 x10E3/uL | ALANINE AMINOTRANSFERASE [2]: 62.67 u/L | ALBUMIN [2]: 4.6 G/DL | ALKALINE PHOSPHATASE [2]: 393.67 u/L | ASPARTATE AMINOTRANSFERASE [2]: 75.67 u/L | BLOOD UREA NITROGEN [2]: 18 mg/dL | CARBON DIOXIDE [2]: 27.67 mmol/L | CHLORIDE [2]: 102.67 MEQ/L | CHOLESTEROL [2]: 67.67 mg/dL | CREATINE PHOSPHOKINASE [2]: 189.67 u/L | CREATININE [2]: 0.32 mg/dL | GLUCOSE [2]: 153.33 mg/dL | LACTATE DEHYDROGENASE [2]: 129.33 u/L | LIPASE [2]: 9.33 u/L | PHOSPHORUS [2]: 12.17 mg/dL | POTASSIUM [2]: 6.03 MEQ/L | SODIUM [2]: 145.53 MEQ/L | TOTAL BILIRUBIN [2]: 0.17 mg/dL | URIC ACID [2]: 1.37 mg/dL | ABSOLUTE BASOPHIL [3]: 0 CELLS/uL | ABSOLUTE EOSINOPHIL [3]: 186.33 CELLS/uL | ABSOLUTE LYMPHOCYTE [3]: 11316.33 CELLS/uL | ABSOLUTE MONOCYTE [3]: 266.33 CELLS/uL | ABSOLUTE SEGMENTED NEUTROPHIL [3]: 1431 CELLS/uL | BASOPHIL [3]: 0% | EOSINOPHIL [3]: 1.33% | ERYTHROCYTE COUNT [3]: 5.62 x10E6/uL | HEMATOCRIT [3]: 35.53% | HEMOGLOBIN [3]: 13.53 G/DL | LEUKOCYTE COUNT [3]: 13.2 x10E3/uL | LYMPHOCYTE [3]: 86% | MEAN CORPUSCULAR HEMOGLOBIN [3]: 24.1 pg | MEAN CORPUSCULAR HEMOGLOBIN CONCENTRATION [3]: 38.1 G/DL | MEAN CORPUSCULAR VOLUME [3]: 63.17 fL | MONOCYTE [3]: 2% | NEUTROPHIL [3]: 10.67% | NUCLEATED RED BLOOD CELLS [3]: 0 /100WBC | PLATELET COUNT [3]: 1313.67 x10E3/uL | ALANINE AMINOTRANSFERASE [4]: 48.67 u/L | ALBUMIN [4]: 4.57 G/DL | ALKALINE PHOSPHATASE [4]: 294.67 u/L | ASPARTATE AMINOTRANSFERASE [4]: 97 u/L | BLOOD UREA NITROGEN [4]: 21.67 mg/dL | CARBON DIOXIDE [4]: 25.33 mmol/L | CHLORIDE [4]: 102.33 MEQ/L | CHOLESTEROL [4]: 65 mg/dL | CREATINE PHOSPHOKINASE [4]: 679 u/L | CREATININE [4]: 0.26 mg/dL | GLUCOSE [4]: 151.67 mg/dL | LACTATE DEHYDROGENASE [4]: 445 u/L | LIPASE [4]: 8.67 u/L | PHOSPHORUS [4]: 11.87 mg/dL | POTASSIUM [4]: 5.23 MEQ/L | SODIUM [4]: 144.1 MEQ/L | TOTAL BILIRUBIN [4]: 0.1 mg/dL | URIC ACID [4]: 1.4 mg/dL

COCCCOc1ccnc(C[S+]([O-])c2nc3ccccc3[nH]2)c1C (centres undefined) [RABEPRAZOLE]
ABSOLUTE BASOPHIL [5]: 0 CELLS/uL | ABSOLUTE EOSINOPHIL [5]: 317.67 CELLS/uL | ABSOLUTE LYMPHOCYTE [5]: 11906.67 CELLS/uL | ABSOLUTE MONOCYTE [5]: 267.33 CELLS/uL | ABSOLUTE SEGMENTED NEUTROPHIL [5]: 875 CELLS/uL | BASOPHIL [5]: 0% | EOSINOPHIL [5]: 2.33% | ERYTHROCYTE COUNT [5]: 5.67 x10E6/uL | HEMATOCRIT [5]: 36.1% | HEMOGLOBIN [5]: 13.63 G/DL | LEUKOCYTE COUNT [5]: 13.37 x10E3/uL | LYMPHOCYTE [5]: 89% | MEAN CORPUSCULAR HEMOGLOBIN [5]: 24.07 pg | MEAN CORPUSCULAR HEMOGLOBIN CONCENTRATION [5]: 37.8 G/DL | MEAN CORPUSCULAR VOLUME [5]: 63.8 fL | MONOCYTE [5]: 2% | NEUTROPHIL [5]: 6.67% | NUCLEATED RED BLOOD CELLS [5]: 0 /100WBC | PLATELET COUNT [5]: 1283.67 x10E3/uL | ALANINE AMINOTRANSFERASE [6]: 42 u/L | ALBUMIN [6]: 4.3 G/DL | ALKALINE PHOSPHATASE [6]: 427.67 u/L | ASPARTATE AMINOTRANSFERASE [6]: 83.33 u/L | BLOOD UREA NITROGEN [6]: 14.33 mg/dL | CARBON DIOXIDE [6]: 27 mmol/L | CHLORIDE [6]: 105.67 MEQ/L | CHOLESTEROL [6]: 82.33 mg/dL | CREATINE PHOSPHOKINASE [6]: 491.33 u/L | CREATININE [6]: 0.16 mg/dL | GLUCOSE [6]: 161.67 mg/dL | LACTATE DEHYDROGENASE [6]: 92.33 u/L | LIPASE [6]: 9 u/L | PHOSPHORUS [6]: 14.1 mg/dL | POTASSIUM [6]: 6.68 MEQ/L | SODIUM [6]: 146.6 MEQ/L | TOTAL BILIRUBIN [6]: 0.2 mg/dL | TOTAL PROTEIN [6]: 5.87 G/DL | URIC ACID [6]: 2.2 mg/dL | ABSOLUTE BASOPHIL [7]: 0 CELLS/uL | ABSOLUTE EOSINOPHIL [7]: 38.67 CELLS/uL | ABSOLUTE LYMPHOCYTE [7]: 10652 CELLS/uL | ABSOLUTE MONOCYTE [7]: 120.67 CELLS/uL | ABSOLUTE SEGMENTED NEUTROPHIL [7]: 788.67 CELLS/uL | BASOPHIL [7]: 0% | EOSINOPHIL [7]: 0.33% | ERYTHROCYTE COUNT [7]: 5.6 x10E6/uL | HEMATOCRIT [7]: 36.27% | HEMOGLOBIN [7]: 13.6 G/DL | LEUKOCYTE COUNT [7]: 11.6 x10E3/uL | LYMPHOCYTE [7]: 91.67% | MEAN CORPUSCULAR HEMOGLOBIN [7]: 24.27 pg | MEAN CORPUSCULAR HEMOGLOBIN CONCENTRATION [7]: 37.5 G/DL | MEAN CORPUSCULAR VOLUME [7]: 64.73 fL | MONOCYTE [7]: 1% | NEUTROPHIL [7]: 7% | NUCLEATED RED BLOOD CELLS [7]: 0 /100WBC | PLATELET COUNT [7]: 1417.67 x10E3/uL | ALANINE AMINOTRANSFERASE [8]: 49.33 u/L | ALBUMIN [8]: 4.17 G/DL | ALKALINE PHOSPHATASE [8]: 321 u/L | ASPARTATE AMINOTRANSFERASE [8]: 105 u/L | BLOOD UREA NITROGEN [8]: 19 mg/dL | CARBON DIOXIDE [8]: 23 mmol/L | CHLORIDE [8]: 110 MEQ/L | CHOLESTEROL [8]: 67 mg/dL | CREATINE PHOSPHOKINASE [8]: 1368.67 u/L | CREATININE [8]: 0.21 mg/dL | GLUCOSE [8]: 203 mg/dL | LACTATE DEHYDROGENASE [8]: 225 u/L | LIPASE [8]: 8.67 u/L | PHOSPHORUS [8]: 13.93 mg/dL | POTASSIUM [8]: 6.05 MEQ/L | SODIUM [8]: 148.17 MEQ/L | TOTAL BILIRUBIN [8]: 0.2 mg/dL | URIC ACID [8]: 1.77 mg/dL
